Results published in patent US20240270715A1, “INHIBITORS OF TRANSGLUTAMINASES” (ZEDIRA GMBH, priority 2021, published 2024).
pIC50: −log10 of the molar value.

Key:
[1] = Log D by shake flask method (octanol / PBS pH 7.4, HPLC); type: physicochemical; conditions: octanol / PBS pH 7.4, shake flask; read-out: logD
Method in brief: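 Shake-flask partitioning of compound between octanol and PBS at pH 7.4, with phase concentrations quantified by HPLC. The value reported is Log D.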

[2] = target: T1, recombinant human transglutaminase 2 (Homo sapiens, UniProt P21980); test: Transglutaminase assay: incorporation of dansylcadaverine into dimethylcasein (DCC-assay); type: biochemical; conditions: recombinant human TG2 10 nM, dansylcadaverine/dimethylcasein; read-out: IC50 TG2
T1 sequence (P21980 1-687): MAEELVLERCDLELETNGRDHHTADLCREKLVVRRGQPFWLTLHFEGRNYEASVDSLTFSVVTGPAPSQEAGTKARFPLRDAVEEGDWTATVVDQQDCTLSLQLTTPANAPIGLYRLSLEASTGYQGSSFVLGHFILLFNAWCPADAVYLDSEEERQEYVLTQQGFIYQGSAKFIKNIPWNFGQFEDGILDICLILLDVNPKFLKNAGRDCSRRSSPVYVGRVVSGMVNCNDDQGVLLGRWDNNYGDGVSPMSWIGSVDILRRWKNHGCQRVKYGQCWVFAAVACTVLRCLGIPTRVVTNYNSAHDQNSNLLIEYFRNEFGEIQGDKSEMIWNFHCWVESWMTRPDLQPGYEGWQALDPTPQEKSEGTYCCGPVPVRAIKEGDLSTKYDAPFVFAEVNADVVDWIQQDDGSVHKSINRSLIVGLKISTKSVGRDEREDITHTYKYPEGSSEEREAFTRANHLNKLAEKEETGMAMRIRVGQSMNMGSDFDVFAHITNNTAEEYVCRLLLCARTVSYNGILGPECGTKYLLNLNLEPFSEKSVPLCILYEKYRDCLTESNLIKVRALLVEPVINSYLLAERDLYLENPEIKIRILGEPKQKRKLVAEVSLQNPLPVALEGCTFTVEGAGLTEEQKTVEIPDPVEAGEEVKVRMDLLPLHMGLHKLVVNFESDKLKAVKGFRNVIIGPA
Method in brief: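 Recombinant human TG2 (10 nM final) incorporates dansylcadaverine (16.7 μM) into N,N-dimethylcasein (4 μM) in Tris-HCl buffer, pH 8.0, with 10 mM CaCl2 and 10 mM glutathione. Fluorescence (λex 330, λem 500 nm) followed 30 min. The slope between 20–30 min gives activity versus DMSO control, and IC50 comes from the concentration–activity plot.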

[3] = Caco-2 permeability assay (CacoReady kit); type: in vitro ADME; conditions: human
Method in brief: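 Read-out is the permeability coefficient Papp, obtained from transport across a Caco-2 barrier prepared from a ready-to-use kit following the manufacturer's instructions.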

SMILES | logD [1] | pIC50 [2] | Papp [3] [nm/s]
CCNC(=O)C(=O)CC[C@H](NC(=O)c1snnc1C1CC1)C(=O)Nc1cccn(CC23CC4CC(CC(O)(C4)C2)C3)c1=O [Compound I-82, (S)-N1-(1-((3-hydroxy-1-adamantyl)methyl)-2-oxo-1,2-dihydropyridin-3-yl)-2-(4-cyclopropyl-1,2,3-thiadiazole-5-carboxamido)-N6-ethyl-5-oxohexanediamide] | < 1 | 6.22 to 6.82 | < 10
CCNC(=O)C(=O)CC[C@H](NC(=O)c1cncn1C)C(=O)Nc1cccn(CC(=O)NC23CC4CC(CC(CC)(C4)C2)C3)c1=O [Compound I-5, (S)-N1-ethyl-N6-(1-(2-(3-ethyladamantane-1-amino)-2-oxoethyl)-2-oxo-1,2-dihydropyridin-3-yl)-5-(1-methyl-1H-imidazole-5-carboxamido)-2-oxohexanediamide] | 1 to 3 | 6.22 to 6.82 | < 10
CCNC(=O)C(=O)CC[C@H](NC(=O)c1c(C)ncn1C)C(=O)Nc1cccn(CC(=O)NC23CC4CC(C)(CC(C)(C4)C2)C3)c1=O [Compound I-21, (S)-2-(1,4-dimethyl-1H-imidazole-5-carboxamido)-N6-ethyl-N1-(1-(2-(3,5-dimethyladamantane-1-amino)-2-oxoethyl)-2-oxo-1,2-dihydropyridin-3-yl)-5-oxohexanediamide] | 1 to 3 | 5.46 to 6.22 | < 10
CCNC(=O)C(=O)CC[C@H](NC(=O)c1cnc(C)n1C)C(=O)Nc1cccn(CC(=O)NC23CC4CC(C)(CC(C)(C4)C2)C3)c1=O [Compound I-24, (S)-2-(1,2-dimethyl-1H-imidazole-5-carboxamido)-N6-ethyl-N1-(1-(2-(3,5-dimethyladamantane-1-amino)-2-oxoethyl)-2-oxo-1,2-dihydropyridin-3-yl)-5-oxohexanediamide] | 1 to 3 | 6.22 to 6.82 | < 10
CCNC(=O)C(=O)CC[C@H](NC(=O)c1cnc(Cl)n1C)C(=O)Nc1cccn(CC(=O)NC23CC4(C)CC(C)(CC(C)(C4)C2)C3)c1=O [Compound I-29, (S)-2-(2-chloro-1-methyl-1H-imidazole-5-carboxamido)-N6-ethyl-N1-(1-(2-(3,5,7-trimethyl-1-adamantylamino)-2-oxoethyl)-2-oxo-1,2-dihydropyridin-3-yl)-5-oxohexanediamide] | 1 to 3 | > 6.82 | < 10
CCNC(=O)C(=O)CC[C@H](NC(=O)c1ccc2c(c1)CC(=O)NC2)C(=O)Nc1cccn(CC(=O)NC2(C(=O)O)C3CC4CC2CC(C(F)(F)F)(C4)C3)c1=O (stereo partly drawn) [Compound I-105, (S)-N1-ethyl-N6-(1-(2-(2-carboxy-2-amino-5-(trifluoromethyl)adamantane)-2-oxoethyl)-2-oxo-1,2-dihydropyridin-3-yl)-2-oxo-5-(3-oxo-1,2,3,4-tetrahydroisoquinoline-6-carboxamido)hexanediamide] | < 1 | 5.46 to 6.22 | < 10
CCNC(=O)C(=O)CC[C@H](NC(=O)c1cn(C)nn1)C(=O)Nc1cccn(CC(=O)N[C@@H]2C[C@H]3CC[C@]2(C)C3(C)C)c1=O [Compound I-75, (S)-N1-ethyl-5-(1-methyl-1H-1,2,3-triazole-4-carboxamido)-2-oxo-N6-(2-oxo-1-(2-oxo-2-((1R,2R,4R)-1,7,7-trimethylbicyclo[2.2.1]heptan-2-ylamino)ethyl)-1,2-dihydropyridin-3-yl)hexanediamide] | < 1 | 6.22 to 6.82 | 10 to 100
CCNC(=O)C(=O)CC[C@H](NC(=O)c1cccnc1)C(=O)Nc1cccn(CC(=O)NCCc2ccccc2)c1=O [Ref. 4, reference compound] | < 1 | 5.00 to 5.46 | < 10

Second part, the compound after the results:

logD [1] | pIC50 [2] | Papp [3] [nm/s] | SMILES
< 1 | 5.46 to 6.22 | < 10 | CCNC(=O)C(=O)CC[C@H](NC(=O)c1coc(S(N)(=O)=O)c1)C(=O)Nc1cccn(CC(=O)NC2C3CC4CC2CC(NC(C)=O)(C4)C3)c1=O (stereo partly drawn) [Compound I-112, (S)-N1-ethyl-N6-(1-(2-(1-acetylamino-4-aminoadamantane)-2-oxoethyl)-2-oxo-1,2-dihydropyridin-3-yl)-2-oxo-5-(5-sulfamoylfuran-3-carboxamido)hexanediamide]
< 1 | 5.46 to 6.22 | < 10 | CCNC(=O)C(=O)CC[C@H](NC(=O)c1cncn1C)C(=O)Nc1cccn(CC(=O)NC23CC4CC(CC(C4)C2)C3)c1=O [Compound I-1, (S)-N1-ethyl-N6-(1-(2-(1-adamantylamino)-2-oxoethyl)-2-oxo-1,2-dihydropyridin-3-yl)-5-(1-methyl-1H-imidazole-5-carboxamido)-2-oxohexanediamide]
3 to 5 | > 6.82 | 10 to 100 | CCNC(=O)C(=O)CC[C@H](NC(=O)c1oc(Br)cc1C)C(=O)Nc1cccn(CC(=O)NC2C3CC4CC(C3)CC2C4)c1=O (stereo partly drawn) [Compound I-45, (S)-2-(5-bromo-3-methylfuran-2-carboxamido)-N6-ethyl-N1-(1-(2-(2-adamantylamino)-2-oxoethyl)-2-oxo-1,2-dihydropyridin-3-yl)-5-oxohexanediamide]
< 1 | 5.46 to 6.22 | < 10 | CCNC(=O)C(=O)CC[C@H](NC(=O)c1noc(C)n1)C(=O)Nc1cccn(CC(=O)NC23CC(C2)C3)c1=O [Compound I-116, (S)-N1-(1-(2-(bicyclo[1.1.1]pentan-1-ylamino)-2-oxoethyl)-2-oxo-1,2-dihydropyridin-3-yl)-N6-ethyl-2-(5-methyl-1,2,4-oxadiazole-3-carboxamido)-5-oxohexanediamide]
3 to 5 | > 6.82 | 10 to 100 | CCNC(=O)C(=O)CC[C@H](NC(=O)C1Cc2ccccc2C1)C(=O)Nc1cccn(CC(=O)NC2C3CC4CC(C3)CC2C4)c1=O (stereo partly drawn) [Compound I-39, (S)-2-(2,3-dihydro-1H-indene-2-carboxamido)-N6-ethyl-N1-(1-(2-(2-adamantylamino)-2-oxoethyl)-2-oxo-1,2-dihydropyridin-3-yl)-5-oxohexanediamide]
1 to 3 | 6.22 to 6.82 | < 10 | CCNC(=O)C(=O)CC[C@H](NC(=O)[C@@H]1CCCN1C(C)=O)C(=O)Nc1cccn(CC(=O)NC2C3CC4CC(C3)CC2C4)c1=O (stereo partly drawn) [Compound I-55, (S)-2-((S)-1-acetylpyrrolidine-2-carboxamido)-N6-ethyl-N1-(1-(2-(2-adamantylamino)-2-oxoethyl)-2-oxo-1,2-dihydropyridin-3-yl)-5-oxohexanediamide]
< 1 | 5.46 to 6.22 | < 10 | CCNC(=O)C(=O)CC[C@H](NC(=O)c1nonc1N)C(=O)Nc1cccn(CC(=O)NC23CC(C2)C3)c1=O [Compound I-108, (S)-2-(4-amino-1,2,5-oxadiazole-3-carboxamido)-N1-(1-(2-(bicyclo[1.1.1]pentan-1-ylamino)-2-oxoethyl)-2-oxo-1,2-dihydropyridin-3-yl)-N6-ethyl-5-oxohexanediamide]
1 to 3 | 6.22 to 6.82 | < 10 | CCNC(=O)C(=O)CC[C@H](NC(=O)c1ccnn1C)C(=O)Nc1cccn(CC23CC4CC(CC(C4)C2)C3)c1=O [Compound I-81, (S)-N1-(1-(1-adamantylmethyl)-2-oxo-1,2-dihydropyridin-3-yl)-N6-ethyl-2-(1-methyl-1H-pyrazole-5-carboxamido)-5-oxohexanediamide]
3 to 5 | > 6.82 | 10 to 100 | CCNC(=O)C(=O)CC[C@H](NC(=O)c1cc2c(Br)cccc2o1)C(=O)Nc1cccn(CC(=O)NC2C3CC4CC(C3)CC2C4)c1=O (stereo partly drawn) [Compound I-33, (S)-2-(4-bromobenzofuran-2-carboxamido)-N6-ethyl-N1-(1-(2-(2-adamantylamino)-2-oxoethyl)-2-oxo-1,2-dihydropyridin-3-yl)-5-oxohexanediamide]
< 1 | 6.22 to 6.82 | < 10 | CCNC(=O)C(=O)CC[C@H](NC(=O)c1cncn1C)C(=O)Nc1cccn(CC(=O)NC23CC4CC(C2)C(F)(F)C(C4)C3)c1=O [Compound I-12, (S)-N1-ethyl-N6-(1-(2-(4,4-difluoroadamantane-1-amino)-2-oxoethyl)-2-oxo-1,2-dihydropyridin-3-yl)-5-(1-methyl-1H-imidazole-5-carboxamido)-2-oxohexanediamide]
3 to 5 | 5.46 to 6.22 | < 10 | CCNC(=O)C(=O)CC[C@H](NC(=O)c1csc2nc(C)cn12)C(=O)Nc1cccn(CC(=O)NC2C3CC4CC(C3)CC2C4)c1=O (stereo partly drawn) [Compound I-96, (S)-N1-ethyl-N6-(1-(2-(2-adamantylamino)-2-oxoethyl)-2-oxo-1,2-dihydropyridin-3-yl)-5-(6-methylimidazo[2,1-b]thiazole-3-carboxamido)-2-oxohexanediamide]
